Read-outs that look alike come from different tables or passages of the source.
How the values were obtained:
[1] = test system: primary mouse hepatocytes; assay: Class prediction true GTX vs false GTX by PAM from hepatocyte gene expression; settings: for class prediction (true GTX / false GTX): independent triplicate treatments; for Prediction 24 h Exp 1 / Prediction 24 h Exp 2 / Prediction 24 h Exp 3 / Prediction 48 h Exp 1 / Prediction 48 h Exp 2 / Prediction 48 h Exp 3: PAM class prediction; for predicted test probability: both time points (24 and 48 h)
Method: PAM uses gene expression data to calculate the shrunken centroid for each class and identifies the specific genes that determine the centroid most. Based on the nearest shrunken centroid, PAM is also capable of predicting to which class an unknown sample belongs (27). Class prediction was performed after 24 h and 48 h of exposure.
For this analysis, the gene list with differentially expressed probe sets was used. For each exposure period, 3 sets of genes (classifiers) were generated by PAM, using all ten treatments, based on the smallest estimated misclassification error rate (generated by 10-fold cross-validation) and a >80% predicted test probability. This was done by using 2 experiments as training set and the third experiment for validation. This was done for all 3 possible combinations, each time leaving out another experiment. For each time point, the classifiers that were in common between the three training sets, were set as the final classifier set for that time point
For the purpose of validating the class discrimination models with the final classifier sets, gene expression data were generated for two additional true GTX compounds, phenacetin and DMBA, and for three False GTX compounds, cur, ethylacrylate and resorcinol and the vehicle control for exposure periods of 24 and 48 h.

[2] = cited from earlier work

Cc1c2ccccc2c(C)c2c1ccc1ccccc12 [DMBA]
class prediction (true GTX / false GTX) ([1]; 24 h exposure): classified correctly
class prediction (true GTX / false GTX) ([1]; 48 h exposure): classified correctly
Prediction 24 h Exp 1 [1]: GTX
Prediction 24 h Exp 2 [1]: GTX
Prediction 24 h Exp 3 [1]: GTX
Prediction 48 h Exp 1 [1]: GTX
Prediction 48 h Exp 2 [1]: GTX
Prediction 48 h Exp 3 [1]: GTX
predicted test probability [1]: 100%
Genotoxic class ([2]; known class of the validation compound (GTX = true GTX, FP-GTX = false GTX)): GTX

C=CC(=O)OCC [ethylacrylate]
class prediction (true GTX / false GTX) ([1]; 24 h exposure): classified correctly
class prediction (true GTX / false GTX) ([1]; 48 h exposure): classified correctly
Prediction 24 h Exp 1 [1]: FP-GTX
Prediction 24 h Exp 2 [1]: FP-GTX
Prediction 24 h Exp 3 [1]: FP-GTX
Prediction 48 h Exp 1 [1]: FP-GTX
Prediction 48 h Exp 2 [1]: FP-GTX
Prediction 48 h Exp 3 [1]: FP-GTX
predicted test probability [1]: 100%
Genotoxic class ([2]; in vivo): FP-GTX

— patent publication US20120122727A1, “IN VITRO METHOD FOR PREDICTING WHETHER A COMPOUND IS GENOTOXIC IN VIVO” (priority 2009, published 2012)
